Laboratory results as given in PubChem BioAssay AID2060604 (Molecular Pharmacology Branch, DTP, NCI, 2025).

Tested on: 379773-124-R-J2-PDC complex spheroids, viability % test/control
Assay: Anticancer human tumor 379773-124-R-J2-PDC patient-derived endometrial carcinoma cell line growth inhibition [CLK]
Details: for IC50: curve of first compound; for viability, T/C: stronger effect = lower value
Text: A high-throughput screen of multi-cell type tumor spheroids was designed to identify active combinations of […] and targeted small molecules. Complex spheroids include a stromal component modeled by human endothelial cells (HUVEC) and fibroblasts modeled by human mesenchymal stem cells (MSCs). The concentration ranges selected for each drug and investigational agent were based upon clinically achievable concentrations if the clinical Cmax of the agent was known.
Compounds. The drugs and investigational agents: cirtuvivint (SM08502; NSC835563), CC-671 (NSC850746), vemurafenib (NSC761431), tapotoclax (NSC804041), sotorasib (NSC818433), adagrasib (NSC831453), MRTX-1133 (NSC836407), BAY2416964 (NSC825713), copanlisib (NSC816437), inavolisib (NSC800729), abemaciclib (NSC768073), osimertinib (NSC779217), entinostat (NSC756642), eltanexor (KPT-8602, NSC794443), venetoclax (NSC766270), ceralasertib (NSC777638), bortezomib (NSC756655), olaparib (NSC753686), talazoparib (NSC767125), alisertib (NSC759677), peposertib (NSC802822), gemcitabine (NSC613327), 5-fluorouracil (NSC19893), SN-38 (NSC673596), oxaliplatin (NSC266046), paclitaxel (NSC125973), and doxorubicin (NSC123127), were obtained from the National Cancer Institute (NCI) Developmental Therapeutics Program Chemical Repository. The FDA-approved anticancer drug set is available from the Developmental Therapeutics Program at https://dtp.cancer.gov/organization/dscb/obtaining/available plates.htm. […] The stock solutions were prepared in dimethyl sulfoxide (DMSO, Sigma-Aldrich, St. Louis, MO, cat. D2650), except for the platinum complexes which were prepared in saline (Quality Biological, Gaithersburg, MD, cat. 114-055-101), at 800-fold the tested concentration and stored at -70 degrees C prior to their use. All drugs and investigational agents were tested over a range starting from a high concentration at or near the clinical Cmax and decreasing in half-log increments. If the clinical Cmax for an agent had not been determined, the highest concentration tested was 10 microM.
Cell Culture. All cells were maintained in an incubator at 37 degrees C and 5% CO2 with 95% humidity. The PDC lines were cultured according to standard operating procedures established by the NCI PDMR. Briefly, all PDCs were thawed and cultured in Matrigel-coated flasks prepared with a working solution of 1X Ham's F-12 nutrient mix, without supplementation (Invitrogen, Waltham, MA, cat. 11765054), 100 U/mL penicillin-streptomycin (Invitrogen, cat. 15140122), and 2.5% Matrigel (Corning Inc., Corning, NY, cat. 354248) for the first three passages. The 947758-054-R-J2-PDC line was cultured in 6B/Colon 1A media, which includes advanced DMEM/F-12 (Thermo Fisher Scientific, cat. 12634028), 10 mM HEPES (Thermo Fisher Scientific, cat. 15630080), 1X GlutaMAX supplement (Thermo Fisher Scientific, cat. 35050061), 0.1 mg/mL primocin (InvivoGen, cat. ant-pm-2), 10% defined fetal bovine serum, heat inactivated (HyClone Laboratories Inc., cat. SH30070.03HI), 1.25 mM N-Acetyl-L-cysteine (Sigma-Aldrich, cat. A9165), 10 mM nicotinamide (Sigma-Aldrich, cat. N0636), 1X B-27 supplement (Thermo Fisher Scientific, cat. 17504044), 1X N-2 supplement (Thermo Fisher Scientific, cat. 17502048), and 10 microM Y-27632 dihydrochloride (Tocris Bioscience, cat. 1254). The 876862-298-R-J1-PDC was cultured in 6E media, which includes all 6B/Colon 1A media components plus 50% L-WRN conditioned media (ATCC, cat. CRL-3276), 50 ng/mL recombinant human EGF recombinant protein (hEGF; Thermo Fisher Scientific, cat. PHG0311), 10 ng/mL recombinant human fibroblast growth factor 10 (hGFG-10; PeproTech, cat. 100-26), 1 ng/mL recombinant human fibroblast growth factor 2 (hFGF-2; PeproTech, cat. 100-18B), and 1 µM prostaglandin E2 (PGE2; Tocris, cat. 2296). The 227483-062-R1-J1-PDC line was cultured in Panc media, containing all 6E components except hFGF-2, with the addition of 500 nM SB-431542 (Selleckchem, cat. S1067) and 10 nM gastrin (Tocris, cat. 3006). […]

[1] = second compound 0.0316 µM, first compound 0.0316 µM
[2] = second compound 0.0316 µM, first compound 0.1 µM
[3] = second compound 0.0316 µM, first compound 0.316 µM
[4] = second compound 0.0316 µM, first compound 1 µM
[5] = second compound 0.0316 µM, first compound 3.16 µM
[6] = second compound 0.0316 µM, first compound 10 µM
[7] = second compound 0.1 µM, first compound 0.0316 µM
[8] = second compound 0.1 µM, first compound 0.1 µM
[9] = second compound 0.1 µM, first compound 0.316 µM
[10] = second compound 0.1 µM, first compound 1 µM
[11] = second compound 0.1 µM, first compound 3.16 µM
[12] = second compound 0.1 µM, first compound 10 µM
[13] = second compound 0.316 µM, first compound 0.0316 µM
[14] = second compound 0.316 µM, first compound 0.1 µM
[15] = second compound 0.316 µM, first compound 0.316 µM
[16] = second compound 0.316 µM, first compound 1 µM
[17] = second compound 0.316 µM, first compound 3.16 µM
[18] = second compound 0.316 µM, first compound 10 µM
[19] = second compound 1 µM, first compound 0.0316 µM
[20] = second compound 1 µM, first compound 0.1 µM
[21] = second compound 1 µM, first compound 0.316 µM
[22] = second compound 1 µM, first compound 1 µM
[23] = second compound 1 µM, first compound 3.16 µM
[24] = second compound 1 µM, first compound 10 µM
[25] = second compound 3.16 µM, first compound 0.0316 µM
[26] = second compound 3.16 µM, first compound 0.1 µM
[27] = second compound 3.16 µM, first compound 0.316 µM
[28] = second compound 3.16 µM, first compound 1 µM
[29] = second compound 3.16 µM, first compound 3.16 µM
[30] = second compound 3.16 µM, first compound 10 µM
[31] = second compound 10 µM, first compound 0.0316 µM
[32] = second compound 10 µM, first compound 0.1 µM
[33] = second compound 10 µM, first compound 0.316 µM
[34] = second compound 10 µM, first compound 1 µM
[35] = second compound 10 µM, first compound 3.16 µM
[36] = second compound 10 µM, first compound 10 µM
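Note: compound exposure lasted seven days before the viability readout.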
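Throughout, for viability, T/C: 100% = DMSO vehicle control wells.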

Question: For `C#Cc1c(F)ccc2cc(O)cc(-c3ncc4c(N5CC6CCC(C5)N6)nc(OCC56CCCN5CC(F)C6)nc4c3F)c12` (centres undefined) + CN1CCN(c2cc(C(=O)Nc3cc4cc(-c5cnn(C)c5)ccc4cn3)ccn2)CC1, which IC50 (second compound 0.0316 µM) is on record?
Answer: > 10000 nM

Question: And the IC50 (second compound 0.1 µM)?
Answer: > 10000 nM

Question: And the IC50 (second compound 0.316 µM)?
Answer: < 31.6 nM

Question: And the IC50 (second compound 1 µM)?
Answer: < 31.6 nM

Question: And the IC50 (second compound 3.16 µM)?
Answer: < 31.6 nM

Question: What about the IC50 (second compound 10 µM) of the same compound?
Answer: < 31.6 nM

Question: What about the viability, T/C [1] of the same compound?
Answer: 88.4%

Question: And the viability, T/C [2]?
Answer: 91.4%

Question: And the viability, T/C [3]?
Answer: 93%

Question: What about the viability, T/C [4] of the same compound?
Answer: 87.5%

Question: What about the viability, T/C [5] of the same compound?
Answer: 103%

Question: And the viability, T/C [6]?
Answer: 99.3%

Question: And the viability, T/C [7]?
Answer: 89.7%

Question: And the viability, T/C [8]?
Answer: 84.5%

Question: And the viability, T/C [9]?
Answer: 75.7%

Question: And the viability, T/C [10]?
Answer: 77%

Question: What about the viability, T/C [11] of the same compound?
Answer: 99.1%

Question: What about the viability, T/C [12] of the same compound?
Answer: 72.8%

Question: What about the viability, T/C [13] of the same compound?
Answer: 35.7%

Question: And the viability, T/C [14]?
Answer: 27.4%

Question: And the viability, T/C [15]?
Answer: 35.1%

Question: What about the viability, T/C [16] of the same compound?
Answer: 33.3%

Question: And the viability, T/C [17]?
Answer: 32.5%

Question: And the viability, T/C [18]?
Answer: 28.4%

Question: And the viability, T/C [19]?
Answer: 0.19%

Question: And the viability, T/C [20]?
Answer: 0.22%

Question: What about the viability, T/C [21] of the same compound?
Answer: 0.24%

Question: And the viability, T/C [22]?
Answer: 1.34%

Question: And the viability, T/C [23]?
Answer: 0.78%

Question: What about the viability, T/C [24] of the same compound?
Answer: 0.14%

Question: What about the viability, T/C [25] of the same compound?
Answer: 0.14%

Question: And the viability, T/C [26]?
Answer: 2.72%

Question: What about the viability, T/C [27] of the same compound?
Answer: 0.76%

Question: And the viability, T/C [28]?
Answer: 2.34%

Question: What about the viability, T/C [29] of the same compound?
Answer: 1.68%

Question: What about the viability, T/C [30] of the same compound?
Answer: 1.37%

Question: And the viability, T/C [31]?
Answer: 2.32%

Question: What about the viability, T/C [32] of the same compound?
Answer: 0.23%

Question: And the viability, T/C [33]?
Answer: 0.32%

Question: What about the viability, T/C [34] of the same compound?
Answer: 3.73%

Question: What about the viability, T/C [35] of the same compound?
Answer: 1.56%

Question: And the viability, T/C [36]?
Answer: 0.31%

Question: For `CC(CO)NC(=O)c1cc(-c2ccc(Cl)cc2)nn(-c2cnn(C)c2)c1=O` (centres undefined) + CN1CCN(c2cc(C(=O)Nc3cc4cc(-c5cnn(C)c5)ccc4cn3)ccn2)CC1, which IC50 (second compound 0.0316 µM) is on record?
Answer: > 10000 nM

Question: And the IC50 (second compound 0.1 µM)?
Answer: > 10000 nM

Question: And the IC50 (second compound 0.316 µM)?
Answer: < 31.6 nM

Question: What about the IC50 (second compound 1 µM) of the same compound?
Answer: < 31.6 nM

Question: And the IC50 (second compound 3.16 µM)?
Answer: < 31.6 nM

Question: What about the IC50 (second compound 10 µM) of the same compound?
Answer: < 31.6 nM

Question: What about the viability, T/C [1] of the same compound?
Answer: 100%

Question: And the viability, T/C [2]?
Answer: 86.8%

Question: What about the viability, T/C [3] of the same compound?
Answer: 90.3%

Question: And the viability, T/C [4]?
Answer: 102%

Question: What about the viability, T/C [5] of the same compound?
Answer: 102%

Question: What about the viability, T/C [6] of the same compound?
Answer: 66.5%

Question: And the viability, T/C [7]?
Answer: 96.9%

Question: What about the viability, T/C [8] of the same compound?
Answer: 86.3%

Question: What about the viability, T/C [9] of the same compound?
Answer: 79.8%

Question: What about the viability, T/C [10] of the same compound?
Answer: 105%

Question: What about the viability, T/C [11] of the same compound?
Answer: 75.1%

Question: What about the viability, T/C [12] of the same compound?
Answer: 52.9%

Question: And the viability, T/C [13]?
Answer: 24.6%

Question: What about the viability, T/C [14] of the same compound?
Answer: 27.9%

Question: And the viability, T/C [15]?
Answer: 33.9%

Question: What about the viability, T/C [16] of the same compound?
Answer: 32.1%

Question: And the viability, T/C [17]?
Answer: 32.6%

Question: What about the viability, T/C [18] of the same compound?
Answer: 24.4%

Question: What about the viability, T/C [19] of the same compound?
Answer: 0.57%

Question: What about the viability, T/C [20] of the same compound?
Answer: 0.17%

Question: What about the viability, T/C [21] of the same compound?
Answer: 0.46%

Question: What about the viability, T/C [22] of the same compound?
Answer: 0.65%

Question: And the viability, T/C [23]?
Answer: 0.68%

Question: What about the viability, T/C [24] of the same compound?
Answer: 0.88%

Question: What about the viability, T/C [25] of the same compound?
Answer: 1.45%

Question: What about the viability, T/C [26] of the same compound?
Answer: 0.87%

Question: And the viability, T/C [27]?
Answer: 0.16%

Question: What about the viability, T/C [28] of the same compound?
Answer: 2.5%

Question: And the viability, T/C [29]?
Answer: 1.79%

Question: What about the viability, T/C [30] of the same compound?
Answer: 1.37%

Question: What about the viability, T/C [31] of the same compound?
Answer: 0.55%

Question: And the viability, T/C [32]?
Answer: 0.23%

Question: What about the viability, T/C [33] of the same compound?
Answer: 0.2%

Question: What about the viability, T/C [34] of the same compound?
Answer: 0.85%

Question: And the viability, T/C [35]?
Answer: 0.23%

Question: What about the viability, T/C [36] of the same compound?
Answer: 0.65%
